# Patent US4609640A, “Preparation having excellent absorption property” (priority 1981, dated 1986)
# Conditions: rat, in vivo
# Description: Subsequently, these samples were administered to Wistar-strain rats as shown below and quantities of Cephalothin disappeared by absorption were measured.
# In the experiment, Wistar-strain male rats, weighing 250 to 300 g, were narcotized with pentobarbital (50 mg/kg) and thereafter subjected to hypoabdominal incision for a first cannulation at a position about 1.5 cm from the anus and also another cannulation at a position 5 cm above the first cannulation. Subsequently, the rectum was internally washed with about 20 ml of isotonic sodium chloride solution kept at 38° C., and each sample was circulated at a flow rate of 2 ml/minute for 5 minutes to make the concentration in the system constant. Then, 6 ml of each sample was circulated at a flow rate of 2 ml/minute, and samples each of 0.05 ml were collected at intervals of 10 minutes. Each sample was diluted and the quantity of Cephalothin disappeared was determined by UV-spectrophotometer or high-speed liquid chromatography.
substance,measurement,value
pectinic acid,absorption of Cephalothin,improves remarkably absorption of Cephalothin
same,absorption of Cephalothin under hyper tonic conditions,further improvement
